# Measurements taken from patent publication US20120157396A1, “PYRAZINAMIDE FOR IMMUNOSTIMULATION AND THE TREATMENT OF LEISHMANIASES” (priority 2009, published 2012).
# Several values for one entry are separate records, joined by “and”; a condition that tells them apart may be missing. Equal values may be shown once. Read-outs that look alike come from different tables or passages of the source.
# Assays:
# L. major promastigotes = test: L. major promastigote drug treatment, parasite survival after 48 h; assay type: cell-based; conditions: 48 h, promastigote
# Experimental: The effect of PZA was first investigated with promastigotes of L. major. PZA was diluted in medium and added to cultures. After 48 h, parasite multiplication was determined by counting parasites in culture. […] Incubation of L. major with 1 μg/ml amphotericin B (as a positive control) caused 100% mortality of promastigotes and 90% of amastigotes.
# Mid-log phase (day 3 of culture) L. major promastigotes were employed. Parasite concentration was adjusted to 10^6 promastigotes/ml and seeded into 96-well plates in a volume of 100 μl (final concentration, 10^5 promastigotes/well). PZA was tested in triplicate in a concentration gradient from 1,000-0.5 μg/ml and added to the wells containing the parasite in a volume of 100 μl. A negative control was included with three wells containing only parasites and medium. The positive control consisted of amphotericin B (1 μg/ml). This concentration was previously employed by us because this concentration is equivalent to drug concentrations achieved in human plasma. After 48 h of incubation at 26° C., 10 μL of each well was diluted in 90 μL of the vital colorant (trypan blue in PBS) and the parasites were quantified in a Neubauer chamber. Data was normalized as percentage of survival compared to untreated controls. The Lethal Dose 50 (LD50) was extrapolated from the graph as the concentration of the products that inhibited the parasitic growth at 50% of the values of the negative control.
# uninfected J774 cells = assay type: cell-based; conditions: 48 h; for percentage of survival compared to untreated control: mouse
# Experimental: The potential cytotoxicity of PZA toward the mammalian cell line was determined by co-incubation of PZA with uninfected J774 cells for 48 h (10^4 cells/well) in 96-well culture plates. […] At 200 μg/ml, the compound started to show signs of toxicity, resulting in mortality of 25% of the cell monolayer. […] The control drug amphotericin B caused 5% mortality of the cell monolayer at the concentration tested (1 μg/ml).
# J774 cell viability following incubation with PZA was also determined. Cells were seeded onto 8-well Labtek chambers as above and incubated with different concentrations of PZA (up to 1 mg/ml) for 48 h, stained with Diff-Quick and counted under light microscope. The percentage of viable cells was determined after quantifying the number of cells present per field (in 25 fields, ca. 500 cells). Percentage of survival and MIC50 were calculated as above.
# L. donovani = tested on: L. donovani
# Experimental: To induce visceral leishmaniasis, we inoculated mice (n=8) intravenously with 5×10^6 L. donovani 1S and treated them with PZA (900-150 mg/kg) for 3 wks, 5 days/wk. The lowest dose was equivalent to dose of PZA used in humans (2 g/day). A group of mice treated with vehicle (3.8% DMSO in water) was included as a control. C57BL/6 mice infected with L. donovani typically show detectable parasites in liver and spleens for 8-12 wk. […] We euthanized mice 3 wks after the initiation of the experiment and determined total body weight, liver and spleen weights, and number of parasites in livers.
# [1] = tested on: dendritic cells lacking TLR-2 and -4; test: Activation of bone marrow-derived dendritic cells from TLR-2/-4 double knock out mice; assay type: cell-based
# Experimental: FIG. 11. A. The immunostimulatory effect of PZA is independent of TLR engagement. Mean fluorescence values for the expression of CD80, CD86, MHC Class I and MHC Class II and B. IL-12, IL-10 and iNOS expression determined by flow cytometry in bone marrow-derived dendritic cells from TLR-2/-4 double knock out mice, infected or not with L. major, and treated with 10 and 100 μM PZA. Uninfected cells were treated with 10 U IFN-γ/100 ng/ml LPS as a positive control of activation. Unstimulated, untreated cells are also shown. Data are expressed as mean±standard deviation of n=3 determinations. *: Statistically significant P≦0.03; **: Statistically significant P≦0.005; ***: Statistically significant, P≦0.0001 when compared to the group infected with L. major and untreated.
# In this experiment, we treated the dendritic cells as described above, in the presence or absence of L. major infection. Again as a positive control, cells were primed with IFN-γ and LPS. […] In the same way, the expression of IL-12, IL-10 and iNOS was increased in treated cells, irrespective of infection (FIG. 11B).
# [2] = PZA-treated children, Zhu et al.; cited from earlier work
# [3] = mouse models of VL (FIG. 8 legend)
structure (smiles),measurement,setting,value
"NC(=O)c1cnccn1 [PZA, pyrazinamide]",MIC50,L. major promastigotes; Leishmania major,10 µM and 16.2 µg/mL
same,percentage of survival compared to untreated control,L. major promastigotes; PZA 1 μg/ml,88 ± 18%
same,percentage of survival compared to untreated control,L. major promastigotes; PZA 12.5 μg/ml,50 ± 18%
same,percentage of survival compared to untreated control,L. major promastigotes; PZA 50 μg/ml,38 ± 14%
same,percentage of survival compared to untreated control,L. major promastigotes; PZA 200 μg/ml,20 ± 10%
same,percentage of survival compared to untreated control,L. major promastigotes; PZA 1000 μg/ml,10 ± 12%
same,mortality of the cell monolayer,uninfected J774 cells; PZA 200 μg/ml,25%
same,mortality of the macrophages,uninfected J774 cells; PZA 1 mg/ml,100%
same,percentage of survival compared to untreated control,uninfected J774 cells; 1 μg/ml,100 ± 11%
same,percentage of survival compared to untreated control,uninfected J774 cells; 12.5 μg/ml,100 ± 10%
same,percentage of survival compared to untreated control,uninfected J774 cells; 50 μg/ml,100 ± 12%
same,percentage of survival compared to untreated control,uninfected J774 cells; 100 μg/ml,100 ± 15%
same,percentage of survival compared to untreated control,uninfected J774 cells; 200 μg/ml,85 ± 12%
same,percentage of survival compared to untreated control,uninfected J774 cells; 1000 μg/ml,0%
same,size of livers and spleens,"L. donovani; PZA 900-150 mg/kg, 3 wks",significantly reduced
same,liver parasites,"L. donovani; PZA at all doses tested (900-150 mg/kg), 3 wks",significantly decreased
same,hepatomegaly and splenomegaly,L. donovani; [3],prevented hepatomegaly and splenomegaly
same,reduction of liver parasites,L. donovani; [3],2-4 log 10
same,expression of activation markers and MHC Class molecules,"[1]; 10 and 100 μM PZA, dose-dependent, TLR-2/-4 double knock out dendritic cells",increased expression of activation markers and MHC Class molecules
same,"expression of IL-12, IL-10 and iNOS","[1]; PZA-treated cells, irrespective of infection",increased
same,serum concentration,[2],41000 ng/mL
